Values of other authors as cited in patent publication US6428819B1, “Plant extracts for the preparation of pharmaceutical compositions for the treatment of hepatitis” (priority 1996, dated 2002).

B1: IFN-gamma: interferon gamma with known antiviral activity (protein, UniProt P01579 24-161, looked up)
Interferon gamma: QDPYVKEAENLKKYFNAGHSDVADNGTLFLGILKNWKEESDRKIMQSQIVSFYFKLFKNFKDDQSIQKSVETIKEDMNVKFFNSNKKKRDDFEKLTNYSVTDLNVQRKAIHELIQVMAELSPAAKTGKRKRSQMLFRG

System: hepatitis C
Settings: literature reports

Molecule	treatment outcome in chronic hepatitis
Nc1nc2c(ncn2COCCO)c(=O)[nH]1 [Acyclovir]	unsatisfactory
B1	ineffective
